Assay results taken from patent publication US5789425A, “Imidazolidinone derivatives, their acid adducts and therapeutic drugs for senile dementia” (Kyorin Pharmaceutical Co., Ltd., priority 1993, dated 1998).
pIC50: −log10 of the molar value.

Key:
[1] = system: pirenzepine-induced amnesia; assay: Testing on the pirenzepine-induced amnesia (step-through type passive avoidance); assay type: in vivo, Std:ddy strain male mice; details: orally 60 minutes before acquisition trial; for Reaction latency Mean ± S.E.: retention trial 24 hours later, maximum 300 seconds, pirenzepine-treated mice
From the text: In vivo pharmacological test
Testing on the pirenzepine-induced amnesia
For the experiment animals, Std:ddy strain male mice with body weight of 24 to 33 g (age in week: 5) (Nippon SLC) were used. For the device, a step-through type passive avoidance apparatus (made by Ohara Medical Co., Ltd.) consisting of two light and dark rooms was used. In the acquisition trial, mouse was placed in the light room and, 10 seconds later, the partitive guillotine door was opened. As soon as the mouse moved into the dark room, the guillotine door was closed and electric shock of 43 to 44 V was given for 1 second through the metal grid bars of the floor. The retention trial was conducted 24 hours later since then. […] The induction of amnesia was performed by fixing a mouse at prone position without anesthetization at 20 minutes before learning acquisition trial and injecting pirenzepine (10 μg/2 μl/mouse bilaterally into cerebral ventricles using a microsyringe. Moreover, a group not to administered with pirenzepine before acquisition trial (non-amnesia comparison group) was also provided. The testing compound was administered orally at 60 minutes before acquisition trial. The improvement rate was calculated according to following equation and the results are shown in Table 8 (refer to: M. P. Callfield et al, J. Pharm. Pharmacol.) 1983, 35, 131-132). [formula]

[2] = system: M1 and M2 muscarinic receptors; assay: Selectivity to M1 receptor (ratio of IC50 values of M1 and M2 binding experiments); set-up: species or system rat
Procedure: 3) Selectivity to M1 receptor
This was determined from the ratio of IC50 values of testing compound obtained from the binding experiments of M1 and M2 muscarinic receptors. [formula]

[3] = molecular target: T1, M2 type muscarinic cholinergic receptor (Rattus norvegicus, UniProt P10980); assay: Radioligand binding experiment to M2 type muscarinic cholinergic receptor ([3H]-QNB); details: 0.1 nM [3H]-QNB, rat brain stem synaptosome membrane; read-out: [^3 H]-QMB (M2) IC50
T1 construct: crude synaptosome membrane specimen was prepared from the brain stem (medulla oblongata-pons) of rat; from tissue; host or cells: rat brain stem (medulla oblongata-pons), crude synaptosomal membranes
T1 sequence (P10980 1-466): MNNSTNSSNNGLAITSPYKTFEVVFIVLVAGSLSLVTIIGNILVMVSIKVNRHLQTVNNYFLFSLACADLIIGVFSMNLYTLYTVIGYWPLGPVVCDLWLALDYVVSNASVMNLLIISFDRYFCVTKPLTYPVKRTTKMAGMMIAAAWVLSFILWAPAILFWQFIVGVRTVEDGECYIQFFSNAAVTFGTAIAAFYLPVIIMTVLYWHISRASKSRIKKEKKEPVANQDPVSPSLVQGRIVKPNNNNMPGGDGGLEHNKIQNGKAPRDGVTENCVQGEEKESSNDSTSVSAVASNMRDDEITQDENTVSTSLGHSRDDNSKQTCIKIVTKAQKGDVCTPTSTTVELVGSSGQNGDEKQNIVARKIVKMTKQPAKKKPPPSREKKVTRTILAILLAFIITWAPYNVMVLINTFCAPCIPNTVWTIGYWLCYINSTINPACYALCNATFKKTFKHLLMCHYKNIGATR

[4] = molecular target: T2, M1 type muscarinic cholinergic receptor (Rattus norvegicus, UniProt P08482); assay: Radioligand binding experiment to M1 type muscarinic cholinergic receptor ([3H]-pirenzepine); details: 1 nM [3H]-pirenzepine, rat brain synaptosome membrane, 60 minutes at 25° C.; read-out: [^3 H]-PZ (M1) IC50
T2 construct: crude synaptosome membrane specimen prepared from all brains (except cerebellum and brain stem) of rat; from tissue; host or cells: rat whole brain without cerebellum and brain stem, crude synaptosomal membranes
T2 sequence (P08482 1-460): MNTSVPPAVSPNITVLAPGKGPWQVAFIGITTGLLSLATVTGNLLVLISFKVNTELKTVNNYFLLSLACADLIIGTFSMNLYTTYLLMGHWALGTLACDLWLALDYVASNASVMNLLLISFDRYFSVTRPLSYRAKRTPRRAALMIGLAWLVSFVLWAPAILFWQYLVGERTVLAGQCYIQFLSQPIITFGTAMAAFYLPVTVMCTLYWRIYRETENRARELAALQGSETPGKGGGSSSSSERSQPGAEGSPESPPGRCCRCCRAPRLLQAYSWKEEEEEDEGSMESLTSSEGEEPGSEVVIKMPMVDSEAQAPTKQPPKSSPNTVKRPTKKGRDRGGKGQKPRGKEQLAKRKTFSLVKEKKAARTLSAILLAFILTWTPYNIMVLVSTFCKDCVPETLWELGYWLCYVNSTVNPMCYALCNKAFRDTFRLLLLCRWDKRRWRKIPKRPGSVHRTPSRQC
Procedure: 1) Radioligand binding experiment to M1 type muscarinic cholinergic receptor
Method: To a crude synaptosome membrane specimen prepared from all brains (except cerebellum and brain stem) of rat, [^3 H]-pirenzepine ([^3 H]-PZ, final concentration: 1 nM) and testing compound were added and the mixture was incubated for 60 minutes at 25° C. After stopped the reaction by filtered with suction, the radioactivity on filter was measured with liquid scintillation counter. The specific binding level of [^3 H]-pirenzepine was determined by subtracting the non-specific binding level in the presence of atropine (1 μM) from total binding level. Putting the [^3 H]-pirenzepine binding in the absence of testing compound on 100, the concentration of compound to decrease by 50% (IC50 value) was made an index of the binding activity of compound to M1 muscarinic receptor (refer to: J. A. D. M. Toner et al, Life Science, 1987, 40, 1981-1987).

IC50 (M2)/C50 (M1) [2]	pIC50 [3]	pIC50 [4]	Structure (SMILES)	Improvement rate ([1]; 1 mg/kg)	Reaction latency Mean ± S.E. ([1]; 1 mg/kg)	Improvement rate ([1]; 3 mg/kg)	Reaction latency Mean ± S.E. ([1]; 3 mg/kg)
> 16.2	< 5.22	6.43	O=C1N(C2=CCCN(Cc3ccccc3)C2)CCN1c1ccc(Cl)cc1 [Example 17, 1-[3-(1-Phenylmethyl-1,2,5,6-tetrahydropyridyl)]-3-(4-chlorophenyl)-2-imidazolidinone]	82.7%	189.9 ± 52.8 s	68.8%	164.2 ± 37.5 s
> 11.3	< 5.22	6.28	O=C1N(C2=CCCN(Cc3ccccc3)C2)CCN1c1ccc([N+](=O)[O-])cc1 [Example 4, 1-[3-(1-Phenylmethyl-1,2,5,6-tetrahydropyridyl)]-3-(4-nitrophenyl)-2-imidazolidinone]			43.6%	71.1 ± 30.2 s
